Laboratory results reported in ChEMBL document CHEMBL1201862, “PubChem BioAssay data set” (2004).
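Protocol summary: plate cells (96-well), add compound at 5 concentrations, incubate 48 h, interpolate endpoints linearly. The concentration for 50% growth inhibition is given as GI50.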 The source made the active and inactive calls. Rule as the data show it: active = GI50 up to about 1.1 µM and inactive = higher.

How the values were obtained:
Assay in all cases: NCI-60 cell line screen, 48 h
A498 = tested on: A498
A549 = tested on: A549
ACHN = tested on: ACHN
COLO 205 = tested on: COLO 205
EKVX = tested on: EKVX
HOP-62 = tested on: HOP-62
HT-29 = tested on: HT-29
K562 = tested on: K562
NCI-H460 = tested on: NCI-H460
NCI-H522 = tested on: NCI-H522
OVCAR-3 = tested on: OVCAR-3
OVCAR-4 = tested on: OVCAR-4
RPMI-8226 = tested on: RPMI-8226
RXF 393 = tested on: RXF 393
SF-268 = tested on: SF-268
SF-539 = tested on: SF-539
SK-MEL-28 = tested on: SK-MEL-28
SN12C = tested on: SN12C
UACC-257 = tested on: UACC-257
UO-31 = tested on: UO-31

| Structure (SMILES) | GI50 (A498) | GI50 (A549) | GI50 (ACHN) | GI50 (COLO 205) | GI50 (EKVX) | GI50 (HOP-62) | GI50 (HT-29) | GI50 (K562) | GI50 (NCI-H460) | GI50 (NCI-H522) | GI50 (OVCAR-3) | GI50 (OVCAR-4) | GI50 (RPMI-8226) | GI50 (RXF 393) | GI50 (SF-268) | GI50 (SF-539) | GI50 (SK-MEL-28) | GI50 (SN12C) | GI50 (UACC-257) | GI50 (UO-31) |
| --- | --- | --- | --- | --- | --- | --- | --- | --- | --- | --- | --- | --- | --- | --- | --- | --- | --- | --- | --- | --- |
| CC12CCC(O)CC1CCC1C2CCC2(C)C(C(=O)CC(O)C(F)(F)F)CCC12 (centres undefined) | 20.2 µM (inactive) | 28.9 µM (inactive) | 47.6 µM (inactive) | 12.2 µM (inactive) | 40.4 µM (inactive) | 27.7 µM (inactive) | 3.97 µM (inactive) | 3.8 µM (inactive) | 11.7 µM (inactive) | 27.1 µM (inactive) | 28.6 µM (inactive) | > 100 µM (inactive) | 4.04 µM (inactive) | 7.87 µM (inactive) | 33.7 µM (inactive) | 35.2 µM (inactive) | 73.5 µM (inactive) | > 100 µM (inactive) | 21.6 µM (inactive) | 3.99 µM (inactive) |
| CN(C)C(=S)SCC(N)=O | > 100 µM (inactive) | > 100 µM (inactive) | > 100 µM (inactive) | > 100 µM (inactive) | > 100 µM (inactive) | > 100 µM (inactive) | > 100 µM (inactive) | > 100 µM (inactive) | > 100 µM (inactive) | > 100 µM (inactive) | > 100 µM (inactive) | > 100 µM (inactive) | > 100 µM (inactive) | > 100 µM (inactive) | > 100 µM (inactive) | > 100 µM (inactive) | > 100 µM (inactive) | > 100 µM (inactive) | > 100 µM (inactive) | – |
| S=C1/C(=N/c2ccccc2)N(c2ccccc2)/C(=N\c2ccccn2)N1c1ccccc1 | 14.5 µM (inactive) | 17.8 µM (inactive) | 4.32 µM (inactive) | 10.8 µM (inactive) | 13.5 µM (inactive) | 16.3 µM (inactive) | 11 µM (inactive) | > 100 µM (inactive) | 13.6 µM (inactive) | 1.63 µM (inactive) | – | 14.6 µM (inactive) | 6.78 µM (inactive) | 10 µM (inactive) | 16.6 µM (inactive) | < 0.01 µM (active) | 16.8 µM (inactive) | 8.41 µM (inactive) | 14.3 µM (inactive) | 13.3 µM (inactive) |
| CCCCCCNC(=O)C1=C(C)NC(C)=C(C(=O)NCCCCCC)C1 | > 100 µM (inactive) | > 100 µM (inactive) | > 100 µM (inactive) | > 100 µM (inactive) | > 100 µM (inactive) | > 100 µM (inactive) | 89.3 µM (inactive) | 65.8 µM (inactive) | > 100 µM (inactive) | > 100 µM (inactive) | > 100 µM (inactive) | > 100 µM (inactive) | > 100 µM (inactive) | > 100 µM (inactive) | > 100 µM (inactive) | > 100 µM (inactive) | > 100 µM (inactive) | > 100 µM (inactive) | > 100 µM (inactive) | 63.8 µM (inactive) |
| CC#C[C@@]1(O)CCCC[C@@H]1O | > 100 µM (inactive) | > 100 µM (inactive) | > 100 µM (inactive) | > 100 µM (inactive) | > 100 µM (inactive) | > 100 µM (inactive) | > 100 µM (inactive) | > 100 µM (inactive) | > 100 µM (inactive) | > 100 µM (inactive) | > 100 µM (inactive) | > 100 µM (inactive) | > 100 µM (inactive) | > 100 µM (inactive) | > 100 µM (inactive) | > 100 µM (inactive) | > 100 µM (inactive) | > 100 µM (inactive) | > 100 µM (inactive) | > 100 µM (inactive) |
| O=c1[nH]c2cc(C(F)(F)F)ccc2nc1C(F)(F)F | 41.3 µM (inactive) | 32.6 µM (inactive) | 37.3 µM (inactive) | 30.9 µM (inactive) | 32.3 µM (inactive) | 18.2 µM (inactive) | 36.4 µM (inactive) | 50.2 µM (inactive) | > 100 µM (inactive) | 29.4 µM (inactive) | 18.5 µM (inactive) | 51.5 µM (inactive) | 31.5 µM (inactive) | 20.3 µM (inactive) | 40.4 µM (inactive) | 25.2 µM (inactive) | 68.9 µM (inactive) | 29.7 µM (inactive) | 27.6 µM (inactive) | 30.4 µM (inactive) |
| Cc1ncc([N+](=O)[O-])n1CC[N+](C)([O-])CCCCn1ccnc1[N+](=O)[O-] (centres undefined) | > 100 µM (inactive) | > 100 µM (inactive) | > 100 µM (inactive) | > 100 µM (inactive) | > 100 µM (inactive) | > 100 µM (inactive) | > 100 µM (inactive) | > 100 µM (inactive) | > 100 µM (inactive) | > 100 µM (inactive) | > 100 µM (inactive) | > 100 µM (inactive) | > 100 µM (inactive) | > 100 µM (inactive) | > 100 µM (inactive) | > 100 µM (inactive) | > 100 µM (inactive) | > 100 µM (inactive) | > 100 µM (inactive) | > 100 µM (inactive) |
| CCOC(=O)c1nc2ccc(C(F)(F)F)cc2nc1NCc1ccc(Cl)c(Cl)c1 | 30.2 µM (inactive) | 35.2 µM (inactive) | 22.5 µM (inactive) | 31.8 µM (inactive) | 22.8 µM (inactive) | 21.1 µM (inactive) | 29.1 µM (inactive) | 80 µM (inactive) | 45.6 µM (inactive) | 11.4 µM (inactive) | 23.3 µM (inactive) | 21 µM (inactive) | > 100 µM (inactive) | 24.4 µM (inactive) | 39.9 µM (inactive) | 61.9 µM (inactive) | – | – | 42.4 µM (inactive) | 45 µM (inactive) |
| CC(=O)c1cccc(NC(=O)C(=O)C(C(=O)c2ccccc2F)C2OC(=O)c3ccccc32)c1 (centres undefined) | 91.6 µM (inactive) | 54.8 µM (inactive) | 37.7 µM (inactive) | 18.6 µM (inactive) | 43.4 µM (inactive) | 61.7 µM (inactive) | 35.9 µM (inactive) | 32.1 µM (inactive) | 30.9 µM (inactive) | 19.4 µM (inactive) | – | 32.5 µM (inactive) | 20.3 µM (inactive) | 28.1 µM (inactive) | 34.3 µM (inactive) | > 10 µM (inactive) | 50.9 µM (inactive) | 27.1 µM (inactive) | 73.5 µM (inactive) | 34.4 µM (inactive) |
| C/C(=C/c1c(C)[nH]c(=O)[nH]c1=O)C(=O)O | > 1370 µM (inactive) | > 1370 µM (inactive) | – | > 1370 µM (inactive) | 1290 µM (inactive) | > 1370 µM (inactive) | > 1370 µM (inactive) | > 1370 µM (inactive) | > 1370 µM (inactive) | > 1370 µM (inactive) | > 1370 µM (inactive) | > 1370 µM (inactive) | > 1370 µM (inactive) | > 1370 µM (inactive) | > 1370 µM (inactive) | > 1370 µM (inactive) | > 1370 µM (inactive) | > 1370 µM (inactive) | > 1370 µM (inactive) | > 1370 µM (inactive) |
| O=C1/C(=C/c2cccs2)N=C(c2ccccc2)N1C1Nc2cc3c(cc2S1)NC(N1C(=O)/C(=C/c2cccs2)N=C1c1ccccc1)S3 (centres undefined) | 69.5 µM (inactive) | 14.6 µM (inactive) | 34.1 µM (inactive) | – | 15.6 µM (inactive) | 30.8 µM (inactive) | 25.3 µM (inactive) | 40.9 µM (inactive) | 6.97 µM (inactive) | 13.4 µM (inactive) | 30.7 µM (inactive) | 24.9 µM (inactive) | 19.8 µM (inactive) | 23.3 µM (inactive) | 20.2 µM (inactive) | 14 µM (inactive) | 32.3 µM (inactive) | – | 71.9 µM (inactive) | 35.3 µM (inactive) |
| Cc1ccc(NC(=O)/C(=N\Nc2ccc([N+](=O)[O-])cc2[N+](=O)[O-])C2C(=O)NC(=O)NC2=O)cc1 | > 100 µM (inactive) | 50.9 µM (inactive) | 23.3 µM (inactive) | > 100 µM (inactive) | – | 27.5 µM (inactive) | 49.5 µM (inactive) | 26.2 µM (inactive) | 71 µM (inactive) | > 100 µM (inactive) | > 100 µM (inactive) | 65.5 µM (inactive) | 70 µM (inactive) | 48.9 µM (inactive) | 32 µM (inactive) | 17.9 µM (inactive) | > 100 µM (inactive) | > 100 µM (inactive) | > 100 µM (inactive) | 15.5 µM (inactive) |
| CC1(C)OCC[C@@H]1[Si](C)(C)C | 30.1 µM (inactive) | > 100 µM (inactive) | 27.5 µM (inactive) | > 100 µM (inactive) | 26.2 µM (inactive) | – | > 100 µM (inactive) | 21.4 µM (inactive) | > 100 µM (inactive) | 15.3 µM (inactive) | 71.9 µM (inactive) | 55.3 µM (inactive) | 29.6 µM (inactive) | 16.5 µM (inactive) | 36.2 µM (inactive) | > 100 µM (inactive) | 84.7 µM (inactive) | > 100 µM (inactive) | > 100 µM (inactive) | 42.9 µM (inactive) |
| COc1ccc(-c2c3c([nH]c(=S)c2C#N)CC(C)(C)CC3=O)cc1 | 55.6 µM (inactive) | > 100 µM (inactive) | > 100 µM (inactive) | – | > 100 µM (inactive) | > 100 µM (inactive) | > 100 µM (inactive) | 61.7 µM (inactive) | > 100 µM (inactive) | 36.4 µM (inactive) | > 100 µM (inactive) | > 100 µM (inactive) | > 100 µM (inactive) | > 100 µM (inactive) | > 100 µM (inactive) | > 100 µM (inactive) | > 100 µM (inactive) | > 100 µM (inactive) | > 100 µM (inactive) | > 100 µM (inactive) |
